Results as given in patent publication US9512178B2, “Neurogenic brain-derived neurotrophic factor peptides” (Research Foundation for Mental Hygiene, Inc., priority 2012, dated 2016).

Key:
BDNF and TrkB = experiment: Induction of BDNF and TrkB expression after pre-treatment with CHX or K252a; assay type: cell-based, mouse; details: 0.1 μM, two days
Method: Peptides were dissolved in water in serial dilutions of 10 mM, 1 mM, 100 μM and 10 μM from which the necessary amount was added directly to the culture medium to a final concentration of 0.05 μM, 1 μM, or 10 μM. The BDNF (Peprotech, NJ, USA) was used as a reference in concentrations of 20 ng/ml (0.79 nM) and 100 ng/ml (3.95 nM). Cycloheximide (CHX) (Sigma-Aldrich, St Louis, Mo., USA) was used for blocking protein synthesis. CHX original stock was 100 mg/ml (355.4 mM) in DMSO; from a second stock of 35.54 mM in DMSO, the dilutions were made to the final concentrations of 100 μM. The K252a (CALBIOCHEM/EMD) was used to inhibit the TrkB Receptor. From a stock of 100 μM in DMSO, K252a was diluted to a final working concentration of 200 nM. The E18 primary hippocampal cells were pre-treated with CHX or K252a 1 h prior to the addition of the peptides or BDNF and a time course of these treatments for 15 min, 60 min and 2 days was studied.
To evaluate whether the effect of B-5 and B-3 in induction of the expression of BDNF and TrkB was via the activation of the TrkB receptor and required signal transduction via TrkB and new protein synthesis, mouse embryonic E18 cultured hippocampal cells were pre-treated with the protein synthesis inhibitor, cycloheximide (CHX) or the Trk inhibitor K252a for 1 h, and then added Peptide B-5 at a concentration of 0.1 μM (the dose that gave the maximum induction of BDNF expression, FIGS. 5A and B) or BDNF 20 ng/ml as a positive control (FIG. 7C,D). A time course of these treatments was studied with Peptide B-5 or BDNF for 15 min, 60 min and two days.

TrkC = target: T1, TrkC (Homo sapiens, UniProt Q16288); experiment: Trk phosphorylation and TrkC expression in TrkC stably-expressing NIH-3T3 cells; assay type: cell-based; details: for expression of TrkC: 1 μM; for activation of TrkC receptor: peptides 1 μM
T1 construct: expressed in transfected cells; host or cells: NIH-3T3 fibroblasts
T1 sequence (Q16288 32-839, species assumed): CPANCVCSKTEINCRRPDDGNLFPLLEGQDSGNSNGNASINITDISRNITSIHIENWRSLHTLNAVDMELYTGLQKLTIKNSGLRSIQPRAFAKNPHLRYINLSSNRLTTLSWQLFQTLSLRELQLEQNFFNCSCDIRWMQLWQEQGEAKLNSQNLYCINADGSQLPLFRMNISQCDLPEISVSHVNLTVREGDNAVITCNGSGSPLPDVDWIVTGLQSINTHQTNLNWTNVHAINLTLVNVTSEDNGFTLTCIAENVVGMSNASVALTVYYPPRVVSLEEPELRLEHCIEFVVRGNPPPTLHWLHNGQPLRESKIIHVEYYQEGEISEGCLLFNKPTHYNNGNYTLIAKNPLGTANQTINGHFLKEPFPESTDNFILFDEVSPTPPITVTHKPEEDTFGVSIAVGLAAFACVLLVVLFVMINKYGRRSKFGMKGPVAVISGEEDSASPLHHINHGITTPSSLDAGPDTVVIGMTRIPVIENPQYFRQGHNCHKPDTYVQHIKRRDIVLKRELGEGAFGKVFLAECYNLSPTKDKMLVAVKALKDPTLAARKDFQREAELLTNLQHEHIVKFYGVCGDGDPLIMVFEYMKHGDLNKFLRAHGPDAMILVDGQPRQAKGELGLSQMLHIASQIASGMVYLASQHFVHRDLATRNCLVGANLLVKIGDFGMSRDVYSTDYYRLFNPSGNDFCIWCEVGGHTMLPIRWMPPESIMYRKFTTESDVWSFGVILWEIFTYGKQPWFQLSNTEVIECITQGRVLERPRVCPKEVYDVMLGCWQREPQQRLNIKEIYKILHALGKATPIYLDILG

[1] = tested on: mouse E18 hippocampal neurons; experiment: Immunocytochemistry of neuronal markers; assay type: cell-based; details: 1 μM, 5 days, vs vehicle
Method: For recovering proteins, cells were seeded in 6-well dishes coated with poly-D-lysine (SigmaAldrich, St. Louis, Mo., USA), 50 μg/ml for an overnight, at a density of 1×10^6 cells/well. For immunocytochemistry, cells were seeded onto 5 mm cover slips coated with poly-D-lysine at a density of 7×10^4 cells/well in 100 μl Defined Medium in 96 well plates. The cells were cultured for four days in vitro prior to the beginning of the treatment with the peptides. The treatment with the peptides was done for five days (starting at DIV 4 and finishing at DIV 9). The culture medium was exchanged completely at the beginning of the treatment with a test peptide (at DIV4), and every 72 h until DIV 9.
After 5 days of treatment, cells seeded on cover slips were fixed in 4% paraformaldehyde (Electron Microscopy Sciences, PA, USA) for 30 min at room temperature, and then washed 2× in PBS for storage at 4° C. prior to staining. Cells were permeabilized in 0.2% Triton-X-100 in PBS for 30 min at 25° C. and incubated in blocking buffer (1% BSA w/v, 0.2% Triton-X-100 v/v in PBS) for 60 min at 25° C. The cells were then incubated with primary antibodies at the appropriate dilutions in blocking buffer at 4° C. for 16 h, washed 3×10 min with 0.2% Triton X100 in PBS, and incubated with fluorescently-labeled secondary antibodies diluted in blocking buffer for 1 h at 25° C. in the dark. Cover slips were washed 3×10 min in 0.2% Triton X-100 in PBS and mounted on glass slides with GelMount (Biomeda, Foster City, Calif., USA). The following primary antibodies were used: rabbit polyclonal anti-GFAP (1:500; Sigma-Aldrich, St. Louis, Mo., USA); rabbit polyclonal anti-NFM (1:200; Chemicon/Millipore, Billerica, Mass., USA); mouse monoclonal anti-NeuN (1:300; Millipore, Billerica, Mass., USA); rabbit polyclonal anti-Tuj-1, 0—III-tubulin (1:800; Covance, Emeryville, Calif., USA); mouse monoclonal SMI 52 to the adult isoforms of MAP-2, MAP2a,b (1:1000; Covance, Emeryville, Calif., USA); rabbit polyclonal anti-synapsin I (1:2000; Stressgen, Farmingdale, N.Y., USA); and rabbit monoclonal anti-PSD95 (1:100; Cell Signaling, Danvers, Mass., USA). Secondary goat anti-mouse and anti-rabbit IgGs conjugated with AlexaFluor 594 were used at 1:1000 (Molecular Probes, Carlsbad, Calif., USA). The nuclei were stained with 1 μM TOPRO in PBS (Invitrogen, Grand Island, N.Y., USA). Mounted cover slips were examined using 40× oil immersion objective of a Nikon 90i fluorescent microscope equipped with Nikon C1 three-laser confocal system and a Nikon DS U1 digital camera, and analyzed with EZ-C1 Viewer Image software, Version 6.0. […]

Q: Which results are given for Ac-I-K-R-G-CONH2 [Peptide B-5]?
A: increase in the expression of BDNF in the presence of CHX (BDNF and TrkB; CHX pre-treatment 1 h): inhibition of the increase; increase in the expression of TrkB in the presence of CHX (BDNF and TrkB; CHX pre-treatment 1 h): inhibition of the increase; induction of the expression of BDNF in cells treated with K252a (BDNF and TrkB; K252a pre-treatment 1 h): no more significant induction; induction of the expression of TrkB in cells treated with K252a (BDNF and TrkB; K252a pre-treatment 1 h): no more significant induction; expression of TrkC (TrkC): neither BDNF (20 ng/mL) nor peptides B-5 (1 μM) and B-3 (1 μM) were able to modify the expression of TrkC; activation of TrkC receptor (TrkC): neither the peptides nor BDNF were able to activate this receptor; expression of 0-III-tubulin (immunocytochemistry) [1]: induced an increase; expression of MAP2 (immunocytochemistry) [1]: induced an increase; expression of NFM (immunocytochemistry) [1]: induced an increase; expression of NeuN (immunocytochemistry) [1]: induced an increase

Q: How did the “expression of TrkC” value (TrkC) turn out when Ac-S-KKR-CONH2 [Peptide B-3] was run?
A: neither BDNF (20 ng/mL) nor peptides B-5 (1 μM) and B-3 (1 μM) were able to modify the expression of TrkC

Q: And the “activation of TrkC receptor” value (TrkC)?
A: neither the peptides nor BDNF were able to activate this receptor
